Results: paper PMC5011342, “A high throughput drug screening assay to identify compounds that promote oligodendrocyte differentiation using acutely dissociated and purified oligodendrocyte precursor cells” (BMC Research Notes, 2016)
Counter-ions that a name gives are not always drawn. Like-named read-outs stand apart in the source and are kept apart here.

Experiments:
[1] = tested on: acutely dissociated and purified rat OPCs; experiment: Acute OL differentiation assay (MBP expression/cell, immunofluorescent image quantification); type: cell-based; conditions: sheet "All OLga data"; for activation at 2 µM / activation at 10 µM / activation at 0.4 µM / activation at 0.08 µM: Rattus norvegicus
In short: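 This acute differentiation assay used purified rat OPCs from postnatal day 6–7 pups, seeded into PDL/laminin-coated 96-well plates in differentiation medium lacking PDGF and FGF. Compounds were applied in quadruplicate after a 1–2 h preincubation at 37 °C, 10 % CO2, with 0.1 % DMSO negative and 40 ng/ml T3 positive controls in eight wells. After fixation on DIV4, anti-MBP immunofluorescence images yielded MBP expression/cell.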

expanded OPCs = experiment: cells; conditions: for viability at 0.1 µM / viability at 1 µM / viability at 10 µM: Rattus norvegicus, 72 h
In short: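 Toxicity screen: compounds added at 0.1, 1 and 10 µM to PDGF-AA-expanded OPCs in 96-well plates, 3-day incubation at 37 °C, 10% CO2, then alamarBlue 1:10 for 4 h with fluorescence readout. Results set screening doses of 10/2, 2/0.4 or 0.4/0.08 µM.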

[2] = test compound at 2 uM, NCC library screen, relative to quetiapine, read-out: 2 uM (% Quet)
[3] = test compound at 10 uM, NCC library screen, relative to quetiapine, read-out: 10 uM (% Quet)
[4] = alamarBlue viability of expanded OPCs, compound at 0.1 µM, relative to DMSO control
[5] = alamarBlue viability of expanded OPCs, compound at 1 µM, relative to DMSO control
[6] = alamarBlue viability of expanded OPCs, compound at 10 µM, relative to DMSO control
[7] = 0.4 uM test compound, relative to quetiapine, read-out: OL differentiation, 0.4 uM (% Quet)
[8] = 2 uM test compound, relative to quetiapine, read-out: OL differentiation, 2 uM (% Quet)
[9] = 0.08 uM test compound, relative to quetiapine, read-out: OL differentiation, 0.08 uM (% Quet)
[10] = read-out: 0.1 µM (% DMSO), alamarBlue viability of expanded OPCs, compound at 0.1 µM, sheet All Tox data
[11] = read-out: 1 µM (% DMSO), alamarBlue viability of expanded OPCs, compound at 1 µM, sheet All Tox data
[12] = read-out: 10 µM (% DMSO), alamarBlue viability of expanded OPCs, compound at 10 µM, sheet All Tox data
[13] = 10 uM test compound, relative to quetiapine, read-out: OL differentiation, 10 uM (% Quet)
[14] = test compound at 0.4 uM, MBP expression relative to quetiapine, NCC library screen, read-out: 0.4 uM (% Quet)

Structure (SMILES) | activation at 2 µM [1, 2] [%] | activation at 10 µM [1, 3] [%] | 0.1 µM (% DMSO) (expanded OPCs; [4]) | 1 µM (% DMSO) (expanded OPCs; [5]) | 10 µM (% DMSO) (expanded OPCs; [6]) | activation at 2 µM [1, 8] [%] | viability at 0.1 µM (expanded OPCs; [10]) [%] | viability at 1 µM (expanded OPCs; [11]) [%] | viability at 10 µM (expanded OPCs; [12]) [%] | also measured
Cl.NC1CCN(c2cccc(Cl)n2)CC1 [SR57227A] |  |  |  |  |  |  |  |  |  | OL differentiation, 2 uM (% Quet) ([1]; 2 uM test compound, relative to quetiapine): 13.8 % Quet; OL differentiation, 10 uM (% Quet) ([1]; 10 uM test compound, relative to quetiapine): 30.8 % Quet; 0.1 µM (% DMSO) (expanded OPCs; alamarBlue viability of expanded OPCs, compound at 0.1 µM, sheet All Tox data): 85.7 % DMSO; 1 µM (% DMSO) (expanded OPCs; alamarBlue viability of expanded OPCs, compound at 1 µM, sheet All Tox data): 88.3 % DMSO; 10 µM (% DMSO) (expanded OPCs; alamarBlue viability of expanded OPCs, compound at 10 µM, sheet All Tox data): 77.5 % DMSO
CN(C)[C@@H]1C(O)=C(C(N)=O)C(=O)[C@@]2(O)C(O)=C3C(=O)c4c(O)cccc4C[C@H]3C[C@@H]12 [Sancycline] | 1.8 | 27.4 | 88.7 | 89.0 | 83.0 |  |  |  |  | 
CC(C)(C)NC(=O)[C@@H]1C[C@@H]2CCCC[C@@H]2CN1C[C@@H](O)[C@H](Cc1ccccc1)NC(=O)[C@H](CC(N)=O)NC(=O)c1ccc2ccccc2n1 [Saquinavir] |  |  |  |  |  | -82.7 |  |  |  | activation at 0.4 µM [1, 7]: -24.5%; viability at 0.1 µM (expanded OPCs; read-out: 0.1 µM (% DMSO), alamarBlue viability, NCC library compound at 0.1 µM, sheet "All Tox data"): 95%; viability at 1 µM (expanded OPCs; read-out: 1 µM (% DMSO), alamarBlue viability, NCC library compound at 1 µM, sheet "All Tox data"): 88.9%; viability at 10 µM (expanded OPCs; read-out: 10 µM (% DMSO), alamarBlue viability, NCC library compound at 10 µM, sheet "All Tox data"): 14.5%
CN1[C@@H]2C[C@@H](OC(=O)[C@H](CO)c3ccccc3)C[C@H]1[C@@H]1O[C@@H]12 [Scopolamine hydrobromide] |  |  |  |  |  |  | 81.1 | 90.5 | 88.5 | activation at 0.08 µM [1, 9]: 21.6%; activation at 0.4 µM [1, 7]: 10.9%
Cc1ncc([N+](=O)[O-])n1CC(C)O (stereo not shown) [Secnidazole] |  |  |  |  |  | 8.1 | 97.5 | 99.6 | 110 | activation at 10 µM [1, 13]: 2.5%
COc1cc(C[C@@H](CO)[C@H](CO)Cc2ccc(O)c(OC)c2)ccc1O [Secoisolariciresinol] |  |  |  |  |  |  |  |  |  | 2 uM (% Quet) ([1]; test compound at 2 uM, NCC library screen, relative to quetiapine): -3.9 % Quet; 10 uM (% Quet) ([1]; test compound at 10 uM, NCC library screen, relative to quetiapine): 12.5 % Quet; 0.1 µM (% DMSO) (expanded OPCs; alamarBlue viability, NCC library compound at 0.1 µM, sheet "All Tox data"): 92.4 % DMSO; 1 µM (% DMSO) (expanded OPCs; alamarBlue viability, NCC library compound at 1 µM, sheet "All Tox data"): 88.4 % DMSO; 10 µM (% DMSO) (expanded OPCs; alamarBlue viability, NCC library compound at 10 µM, sheet "All Tox data"): 78.5 % DMSO
C#CCN(C)[C@H](C)Cc1ccccc1 [Selegiline] | 0.64 | 11.2 | 101.6 | 93.8 | 94.0 | 10.1 | 85.8 | 88.8 | 91.2 | activation at 10 µM [1, 13]: 19.7%
CN[C@H]1CC[C@@H](c2ccc(Cl)c(Cl)c2)c2ccccc21 [Sertraline] |  |  | 52.7 | 20.4 | 7.7 |  | 74.6 | 24.6 | 11.1 | activation at 0.08 µM [1, 9]: 0.9%; activation at 0.4 µM [1, 7]: -63.6%; activation at 0.08 µM ([1]; test compound at 0.08 uM, MBP expression relative to quetiapine, NCC library screen, read-out: 0.08 uM (% Quet)): -13.2%; activation at 0.4 µM [1, 14]: -134%
CCC(C)(C)C(=O)O[C@H]1C[C@@H](C)C=C2C=C[C@H](C)[C@H](CC[C@@H]3C[C@@H](O)CC(=O)O3)[C@H]21 [Simvastatin] |  |  | 157.3 | 86.5 | 25.7 |  |  |  |  | activation at 0.4 µM [1, 14]: -105%; activation at 2 µM ([1]; test compound at 2 uM, MBP expression relative to quetiapine, NCC library screen, read-out: 2 uM (% Quet)): -140%
CC(C)NCC(O)c1ccc(NS(C)(=O)=O)cc1 (stereo not shown) [Sotalol] |  |  |  |  |  | -13.4 | 96.2 | 89.5 | 107 | activation at 10 µM [1, 13]: -22.5%
CN[C@@H]1[C@H](O)[C@H](NC)[C@H]2O[C@@]3(O)C(=O)C[C@@H](C)O[C@H]3O[C@@H]2[C@H]1O [Spectinomycin] | 7.7 | 18.9 | 91.8 | 87.7 | 83.6 |  |  |  |  | 
CC(=O)S[C@@H]1CC2=CC(=O)CC[C@]2(C)[C@H]2CC[C@@]3(C)[C@@H](CC[C@@]34CCC(=O)O4)[C@H]12 [Spironolactone] | -13 | -65.1 | 88.4 | 80.5 | 61.8 |  |  |  |  | 
